In the supplement of paper PMC10307832:

Key:
Assay in all cases: relative viability (nuclei count vs DMSO), 5 days (fraction); higher = more cells survive
[1] = tested on: A-427
Summary of the method: (§1)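 Dosing by pin tool came one day after lung cancer cell lines were seeded in 1536-well plates, using either one drug or a fixed anchor-drug dose plus five library-drug doses (not always all listed) in √10 steps. After 5 days, nuclei were counted on 4× images. Relative viability is treated-well nuclei count divided by vehicle-well nuclei count, and values are medians of duplicate plates.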

[2] = tested on: HCC-15
Summary of the method: as §1

[3] = tested on: HCC-78
Summary of the method: as §1

[4] = tested on: HOP-62
Summary of the method: as §1

[5] = tested on: LC-2-ad
Summary of the method: as §1

[6] = tested on: LXF-289
Summary of the method: as §1

[7] = tested on: NCI-H1734
Summary of the method: as §1

[8] = tested on: NCI-H1755
Summary of the method: as §1

[9] = tested on: NCI-H1792
Summary of the method: as §1

[10] = tested on: NCI-H1915
Summary of the method: as §1

[11] = tested on: NCI-H1975
Summary of the method: as §1

[12] = tested on: NCI-H2126
Summary of the method: as §1

[13] = tested on: NCI-H2228
Summary of the method: as §1

[14] = tested on: NCI-H2347
Summary of the method: as §1

[15] = tested on: NCI-H358
Summary of the method: as §1

[16] = tested on: NCI-H647
Summary of the method: as §1

[17] = tested on: PC-3 [JPC-3]
Summary of the method: as §1

[18] = tested on: RERF-LC-KJ
Summary of the method: as §1

[19] = tested on: SK-LU-1
Summary of the method: as §1

[20] = tested on: SW 1573
Summary of the method: as §1

O=c1cc(N2CCOCC2)oc2c(-c3cccc4c3sc3ccccc34)cccc12 + CS(=O)(=O)N1CCN(Cc2cc3nc(-c4cccc5[nH]ncc45)nc(N4CCOCC4)c3s2)CC1 [Pictilisib] (partner 1 µM)
relative viability ([1]; first compound 0.01 µM): 0.902
relative viability ([1]; first compound 0.03162 µM): 0.8
relative viability ([1]; first compound 0.1 µM): 0.68
relative viability ([1]; first compound 0.3162 µM): 0.635
relative viability ([1]; first compound 1 µM): 0.742
relative viability ([2]; first compound 0.01 µM): 0.66
relative viability ([2]; first compound 0.03162 µM): 0.74
relative viability ([2]; first compound 0.1 µM): 0.939
relative viability ([2]; first compound 0.3162 µM): 0.774
relative viability ([2]; first compound 1 µM): 0.714
relative viability ([3]; first compound 0.01 µM): 0.209
relative viability ([3]; first compound 0.03162 µM): 0.204
relative viability ([3]; first compound 0.1 µM): 0.178
relative viability ([3]; first compound 0.3162 µM): 0.242
relative viability ([3]; first compound 1 µM): 0.191
relative viability ([4]; first compound 0.01 µM): 0.755
relative viability ([4]; first compound 0.03162 µM): 0.696
relative viability ([4]; first compound 0.1 µM): 0.594
relative viability ([4]; first compound 0.3162 µM): 0.649
relative viability ([4]; first compound 1 µM): 0.697
relative viability ([5]; first compound 0.01 µM): 0.39
relative viability ([5]; first compound 0.1 µM): 0.578
relative viability ([5]; first compound 0.3162 µM): 0.456
relative viability ([5]; first compound 1 µM): 0.526
relative viability ([6]; first compound 0.01 µM): 0.877
relative viability ([6]; first compound 0.03162 µM): 0.815
relative viability ([6]; first compound 0.1 µM): 0.881
relative viability ([6]; first compound 0.3162 µM): 0.754
relative viability ([6]; first compound 1 µM): 0.843
relative viability ([7]; first compound 0.01 µM): 0.445
relative viability ([7]; first compound 0.03162 µM): 0.472
relative viability ([7]; first compound 0.1 µM): 0.452
relative viability ([7]; first compound 0.3162 µM): 0.504
relative viability ([7]; first compound 1 µM): 0.446
relative viability ([8]; first compound 0.01 µM): 0.288
relative viability ([8]; first compound 0.03162 µM): 0.402
relative viability ([8]; first compound 0.1 µM): 0.457
relative viability ([8]; first compound 0.3162 µM): 0.458
relative viability ([8]; first compound 1 µM): 0.395
relative viability ([9]; first compound 0.01 µM): 0.286
relative viability ([9]; first compound 0.03162 µM): 0.264
relative viability ([9]; first compound 0.1 µM): 0.244
relative viability ([9]; first compound 0.3162 µM): 0.274
relative viability ([9]; first compound 1 µM): 0.252
relative viability ([10]; first compound 0.01 µM): 0.953
relative viability ([10]; first compound 0.03162 µM): 0.975
relative viability ([10]; first compound 0.1 µM): 1.08
relative viability ([10]; first compound 0.3162 µM): 0.99
relative viability ([10]; first compound 1 µM): 0.909
relative viability ([11]; first compound 0.01 µM): 0.272
relative viability ([11]; first compound 0.03162 µM): 0.307
relative viability ([11]; first compound 0.1 µM): 0.287
relative viability ([11]; first compound 0.3162 µM): 0.305
relative viability ([11]; first compound 1 µM): 0.28
relative viability ([12]; first compound 0.01 µM): 0.471
relative viability ([12]; first compound 0.03162 µM): 0.449
relative viability ([12]; first compound 0.1 µM): 0.529
relative viability ([12]; first compound 0.3162 µM): 0.517
relative viability ([12]; first compound 1 µM): 0.479
relative viability ([13]; first compound 0.03162 µM): 0.351
relative viability ([13]; first compound 0.1 µM): 0.668
relative viability ([13]; first compound 0.3162 µM): 0.39
relative viability ([13]; first compound 1 µM): 0.512
relative viability ([14]; first compound 0.01 µM): 0.671
relative viability ([14]; first compound 0.03162 µM): 0.442
relative viability ([14]; first compound 0.1 µM): 0.502
relative viability ([14]; first compound 0.3162 µM): 0.802
relative viability ([14]; first compound 1 µM): 0.468
relative viability ([15]; first compound 0.01 µM): 0.339
relative viability ([15]; first compound 0.03162 µM): 0.353
relative viability ([15]; first compound 0.1 µM): 0.338
relative viability ([15]; first compound 0.3162 µM): 0.307
relative viability ([15]; first compound 1 µM): 0.318
relative viability ([16]; first compound 0.01 µM): 0.437
relative viability ([16]; first compound 0.3162 µM): 0.578
relative viability ([16]; first compound 1 µM): 0.439
relative viability ([17]; first compound 0.01 µM): 0.751
relative viability ([17]; first compound 0.03162 µM): 0.747
relative viability ([17]; first compound 0.1 µM): 0.711
relative viability ([17]; first compound 0.3162 µM): 0.727
relative viability ([17]; first compound 1 µM): 0.739
relative viability ([18]; first compound 0.01 µM): 0.509
relative viability ([18]; first compound 0.03162 µM): 0.507
relative viability ([18]; first compound 0.1 µM): 0.595
relative viability ([18]; first compound 0.3162 µM): 0.664
relative viability ([18]; first compound 1 µM): 0.514
relative viability ([19]; first compound 0.01 µM): 0.609
relative viability ([19]; first compound 0.03162 µM): 0.604
relative viability ([19]; first compound 0.1 µM): 0.527
relative viability ([19]; first compound 0.3162 µM): 0.481
relative viability ([19]; first compound 1 µM): 0.587
relative viability ([20]; first compound 0.01 µM): 0.549
relative viability ([20]; first compound 0.03162 µM): 0.489
relative viability ([20]; first compound 0.1 µM): 0.48
relative viability ([20]; first compound 0.3162 µM): 0.452
relative viability ([20]; first compound 1 µM): 0.471
